# Measured values: ChEMBL document CHEMBL1201862, “PubChem BioAssay data set” (2004)
#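 Following 48 hours of exposure in 96-well plates, responses at five concentrations were used to interpolate endpoints linearly. The concentration for 50% growth inhibition is given as GI50.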 Calls of active or inactive are those of the source. Cut-off read from the data, not from the text of the source: active = GI50 up to about 1.1 µM and inactive = higher.
# Experiments:
# Experiment in all cases: NCI-60 cell line screen, 48 h
# A498 = tested on: A498
# CCRF-CEM = tested on: CCRF-CEM
# DU-145 = tested on: DU-145
# HCC 2998 = tested on: HCC 2998
# HL-60 = tested on: HL-60
# IGROV-1 = tested on: IGROV-1
# KM12 = tested on: KM12
# MDA-MB-435 = tested on: MDA-MB-435
# MOLT-4 = tested on: MOLT-4
# Malme-3M = tested on: Malme-3M
# NCI-H23 = tested on: NCI-H23
# NCI-H460 = tested on: NCI-H460
# OVCAR-3 = tested on: OVCAR-3
# OVCAR-5 = tested on: OVCAR-5
# RPMI-8226 = tested on: RPMI-8226
# SK-MEL-5 = tested on: SK-MEL-5
# SW-620 = tested on: SW-620
# UACC-62 = tested on: UACC-62
# HCT-15 = tested on: HCT-15
# SK-MEL-2 = tested on: SK-MEL-2
Compound,GI50 (A498),GI50 (CCRF-CEM),GI50 (DU-145),GI50 (HCC 2998),GI50 (HL-60),GI50 (IGROV-1),GI50 (KM12),GI50 (MDA-MB-435),GI50 (MOLT-4),GI50 (Malme-3M),GI50 (NCI-H23),GI50 (NCI-H460),GI50 (OVCAR-3),GI50 (OVCAR-5),GI50 (RPMI-8226),GI50 (SK-MEL-5),GI50 (SW-620),GI50 (UACC-62),GI50 (HCT-15) [µM],GI50 (SK-MEL-2)
Cc1nc2ccccc2c(=O)n1NC(=O)c1ccc([N+](=O)[O-])cc1,56.4 µM (inactive),> 100 µM (inactive),> 100 µM (inactive),> 100 µM (inactive),> 100 µM (inactive),> 100 µM (inactive),> 100 µM (inactive),> 100 µM (inactive),> 100 µM (inactive),> 100 µM (inactive),> 100 µM (inactive),> 100 µM (inactive),> 100 µM (inactive),> 100 µM (inactive),> 100 µM (inactive),> 100 µM (inactive),> 100 µM (inactive),> 100 µM (inactive),,
O=C(O)CCC(=O)c1ccc2sc3ccccc3c2c1,27.9 µM (inactive),0.225 µM (active),> 100 µM (inactive),,15.8 µM (inactive),> 100 µM (inactive),> 100 µM (inactive),> 100 µM (inactive),> 100 µM (inactive),> 100 µM (inactive),> 100 µM (inactive),> 100 µM (inactive),> 100 µM (inactive),> 100 µM (inactive),> 100 µM (inactive),> 100 µM (inactive),> 100 µM (inactive),> 100 µM (inactive),> 100,> 100 µM (inactive)
S=C1SCN(C2CCCCCCCCCCC2)CN1C1CCCCCCCCCCC1,> 100 µM (inactive),34.4 µM (inactive),> 100 µM (inactive),,38.2 µM (inactive),> 100 µM (inactive),> 100 µM (inactive),42.2 µM (inactive),46.1 µM (inactive),> 100 µM (inactive),> 100 µM (inactive),> 100 µM (inactive),34.7 µM (inactive),> 100 µM (inactive),47.5 µM (inactive),> 100 µM (inactive),> 100 µM (inactive),97.9 µM (inactive),> 100,> 100 µM (inactive)
COC(=O)c1csc(-c2nc(CCNC(=O)OC(C)(C)C)sc2Br)n1,> 100 µM (inactive),> 100 µM (inactive),> 100 µM (inactive),> 100 µM (inactive),> 100 µM (inactive),> 100 µM (inactive),> 100 µM (inactive),> 100 µM (inactive),> 100 µM (inactive),> 100 µM (inactive),> 100 µM (inactive),> 100 µM (inactive),> 100 µM (inactive),> 100 µM (inactive),99.3 µM (inactive),> 100 µM (inactive),> 100 µM (inactive),> 100 µM (inactive),> 100,
O=C(O)CCC(N/N=N/c1ccc(-c2nc3ccccc3[nH]2)cc1)C(=O)O (centres undefined),> 100 µM (inactive),15 µM (inactive),> 100 µM (inactive),,37.2 µM (inactive),20.8 µM (inactive),37.4 µM (inactive),52.8 µM (inactive),31.6 µM (inactive),,71.3 µM (inactive),31.8 µM (inactive),30.3 µM (inactive),> 100 µM (inactive),17.9 µM (inactive),66.5 µM (inactive),> 100 µM (inactive),,34,56.6 µM (inactive)
O=C(O)C(Cc1c[nH]c2ccccc12)N1C(=O)c2ccccc2C1=O (centres undefined),> 100 µM (inactive),,> 100 µM (inactive),> 100 µM (inactive),,16.3 µM (inactive),> 100 µM (inactive),> 100 µM (inactive),,> 100 µM (inactive),> 100 µM (inactive),> 100 µM (inactive),> 100 µM (inactive),> 100 µM (inactive),> 100 µM (inactive),> 100 µM (inactive),> 100 µM (inactive),> 100 µM (inactive),> 100,> 100 µM (inactive)
